# Test results taken from patent publication US20090048301A1 (IMCLONE SYSTEMS INCORPORATED, priority 2003, published 2009).
# System: bovine tubulin
# Assay: In vitro tubulin polymerization assay (turbidity at 340 nm)
# Assay type: biochemical
# Settings: 10 μM compound, 30 minute data point, vs 1% DMSO control
# Outline: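 Percent inhibition derives from turbidity (340 nm) at 30 min relative to 1% DMSO controls, read every minute at 37° C. Polymerization mix: 3 mg/ml bovine tubulin, <3% MAPs, in PIPES pH 7 G-PEM with 1 mM GTP, 1 mM MgCl2, 5% glycerol; enhancers also detectable.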
row,Compound,Tubulin Assay: percent inhibition at 10 μM based on 30 minute data [%]
1,"Nc1ccccc1-c1nnc(Nc2ccc3c(c2)OCCO3)[nH]1 [Compound 127b, [5-(2-amino-phenyl)-4H-[1,2,4]triazol-3-yl]-(2,3-dihydro-benzo[1,4]dioxin-6-yl)-amine]",20
2,"COc1cc(Nc2ncccc2-c2nnc(Nc3cccc(NCC4CCOCC4)c3)[nH]2)cc(OC)c1 [Compound 61, N-{5-[2-(3,5-Dimethoxy-phenylamino)-pyridin-3-yl]-4H-[1,2,4]triazol-3-yl}-N′-(tetrahydro-pyran-4-ylmethyl)-benzene-1,3-diamine]",24
3,"CS(=O)(=O)c1ccc(-c2nnc(-c3ccc(C(F)(F)F)cc3NCc3ccncc3)[nH]2)cc1 [Compound 153, {2-[5-(4-Methanesulfonyl-phenyl)-4H-[1,2,4]triazol-3-yl]-5-trifluoromethyl-phenyl}-pyridin-4-ylmethyl-amine]",54
4,"Fc1ccc(-c2nnc(-c3cccnc3NCc3ccc4c(c3)OCO4)[nH]2)cc1Cl [Compound 81, Benzo[1,3]dioxol-5-ylmethyl-{3-[5-(3-chloro-4-fluoro-phenyl)-4H-[1,2,4]triazol-3-yl]-pyridin-2-yl}-amine]",20
5,"COc1cc(CNc2ncccc2-c2nnc(Nc3cccc(F)c3)o2)cc(OC)c1 [Compound 184, (3,5-Dimethoxy-benzyl)-{3-[5-(3-fluoro-phenylamino)-[1,3,4]oxadiazol-2-yl]-pyridin-2-yl}-amine]",23
6,"c1ccc(-c2cnc(Nc3ccc4c(c3)OCCO4)o2)c(NCc2ccc3c(c2)OCCO3)c1 [Compound 245, (2,3-Dihydro-benzo[1,4]dioxin-6-yl)-(5-{2-[(2,3-dihydro-benzo[1,4]dioxin-6-ylmethyl)-amino]-phenyl}-oxazol-2-yl)-amine]",93
7,"CS(=O)(=O)c1ccc(-c2nnc(-c3cccnc3NCCc3c[nH]cn3)[nH]2)cc1 [Compound 91, [2-(1H-Imidazol-4-yl)-ethyl]-{3-[5-(4-methanesulfonyl-phenyl)-4H-[1,2,4]triazol-3-yl]-pyridin-2-yl}-amine]",29
8,"COc1cccc(-c2nnc(-c3ccccc3NCc3ccc4cn[nH]c4c3)[nH]2)c1 [Compound 149, (1H-Indazol-6-ylmethyl)-{2-[5-(3-methoxy-phenyl)-4H-[1,2,4]triazol-3-yl]-phenyl}-amine]",26
9,"COc1cc(CNc2cc(N3CCN(C)CC3)ccc2-c2nnc(Nc3ccc4c(c3)OCCO4)o2)cc(OC)c1 [Compound 235, (2,3-Dihydro-benzo[1,4]dioxin-6-yl)-{5-[2-(3,5-dimethoxy-benzylamino)-4-(4-methyl-piperazin-1-yl)-phenyl]-[1,3,4]oxadiazol-2-yl}-amine]",24
10,"CN(C)c1ccc(-c2nnc(Nc3ccc4c(c3)OCCO4)o2)c(NCc2cncnc2)c1 [Compound 234, (2,3-Dihydro-benzo[1,4]dioxin-6-yl)-(5-{4-dimethylamino-2-[(pyrimidin-5-ylmethyl)-amino]-phenyl}-[1,3,4]oxadiazol-2-yl)-amine]",30
11,"COc1cc(Nc2nnc(-c3cccnc3NCCc3cccnc3)o2)cc(OC)c1OC [Compound 204, (2-Pyridin-3-yl-ethyl)-{3-[5-(3,4,5-trimethoxy-phenylamino)-[1,3,4]oxadiazol-2-yl]-pyridin-2-yl}-amine]",28
12,"NS(=O)(=O)c1cccc(Nc2ncccc2-c2nnc(Nc3ccc4c(c3)OCCO4)o2)c1 [Compound 191, 3-{3-[5-(2,3-Dihydro-benzo[1,4]dioxin-6-ylamino)-[1,3,4]oxadiazol-2-yl]-pyridin-2-ylamino}-benzenesulfonamide]",28
13,"COc1ccc(CNc2nnc(-c3cccnc3NCCCN3CCCC3=O)[nH]2)cc1 [Compound 57, 1-(3-{3-[5-(4-Methoxy-benzylamino)-4H-[1,2,4]triazol-3-yl]-pyridin-2-ylamino}-propyl)-pyrrolidin-2-one]",22
14,"c1ccc(-c2nnc(Nc3ccc4c(c3)OCCO4)o2)c(NCc2cncnc2)c1 [Compound 226, (2,3-Dihydro-benzo[1,4]dioxin-6-yl)-(5-{2-[(pyrimidin-5-ylmethyl)-amino]-phenyl}-[1,3,4]oxadiazol-2-yl)-amine]",94
15,"FC(F)(F)c1ccc(-c2nnc(Nc3ccc4c(c3)OCO4)[nH]2)c(NCc2cccnc2)c1 [Compound 125, Benzo[1,3]dioxol-5-yl-(5-{2-[(pyridin-3-ylmethyl)-amino]-4-trifluoromethyl-phenyl}-4H-[1,2,4]triazol-3-yl)-amine]",96
16,"COc1cc(Nc2ncccc2-c2nnc(-c3ccc(S(C)(=O)=O)cc3)o2)cc(OC)c1 [Compound 213, (3,5-Dimethoxy-phenyl)-{3-[5-(4-methanesulfonyl-phenyl)-[1,3,4]oxadiazol-2-yl]-pyridin-2-yl}-amine]",30

row,Compound,Tubulin Assay: percent inhibition at 10 μM based on 30 minute data [%]
1,"c1cnc(OCc2ccc3c(c2)OCO3)c(-c2nnc(Nc3ccc4c(c3)OCO4)o2)c1 [Compound 208, Benzo[1,3]dioxol-5-yl-{5-[2-(benzo[1,3]dioxol-5-ylmethoxy)-pyridin-3-yl]-[1,3,4]oxadiazol-2-yl}-amine]",44
2,"N#Cc1ccc(S(=O)(=O)Nc2ccccc2-c2nnc(Nc3ccc4c(c3)OCCO4)[nH]2)cc1 [Compound 128, 4-Cyano-N-{2-[5-(2,3-dihydro-benzo[1,4]dioxin-6-ylamino)-4H-[1,2,4]triazol-3-yl]-phenyl}-benzenesulfonamide]",42
3,"COc1cc(Nc2ncccc2-c2nnc(Nc3cccc(NCc4ccc5c(c4)OCO5)c3)[nH]2)cc(OC)c1 [Compound 60, N-Benzo[1,3]dioxol-5-ylmethyl-N′-{5-[2-(3,5-dimethoxy-phenylamino)-pyridin-3-yl]-4H-[1,2,4]triazol-3-yl}-benzene-1,3-diamine]",99
4,"COCCCOc1ccccc1-c1cnc(Nc2cccc(OC)c2)o1 [Compound 258, (3-Methoxy-phenyl)-{5-[2-(3-methoxy-propoxy)-phenyl]-oxazol-2-yl}-amine]",47
5,"c1cnc(NCC2CCCO2)c(-c2nnc(Nc3ccc4c(c3)OCO4)o2)c1 (centres unmarked) [Compound 174, {3-[5-(Benzo[1,3]dioxol-5-ylamino)-[1,3,4]oxadiazol-2-yl]-pyridin-2-yl}-(tetrahydro-furan-2-ylmethyl)-amine]",64
6,"c1cnc(NCC2COCCO2)c(-c2nnc(Nc3ccc4c(c3)OCO4)[nH]2)c1 (centres unmarked) [Compound 47, {3-[5-(Benzo[1,3]dioxol-5-ylamino)-4H-[1,2,4]triazol-3-yl]-pyridin-2-yl}-[1,4]dioxan-2-ylmethyl-amine]",24
7,"FC(F)(F)c1cccc(-c2nnc(-c3cccnc3NCc3ccncc3)[nH]2)c1 [Compound 76, Pyridin-4-ylmethyl-{3-[5-(3-trifluoromethyl-phenyl)-4H-[1,2,4]thiazol-3-yl]-pyridin-2-yl}-amine]",21
8,"CN(C)c1ccc(Nc2nnc(-c3ccccc3NCc3ccc(F)c(F)c3)[nH]2)cc1 [Compound 121, {5-[2-(3,4-Difluoro-benzylamino)-phenyl]-4H-[1,2,4]triazol-3-yl}-(4-dimethylamino-phenyl)-amine]",23
9,"CN(C)c1ccc(-c2nnc(Nc3ccc4c(c3)OCCO4)o2)c(NCc2ccc3c(c2)OCO3)c1 [Compound 232, (5-{2-[(Benzo[1,3]dioxol-5-ylmethyl)-amino]-4-dimethylamino-phenyl}-[1,3,4]oxadiazol-2-yl)-(2,3-dihydro-benzo[1,4]dioxin-6-yl)-amine]",26
10,"COc1ccc(CNc2ncccc2-c2nnc(Nc3cc(OC)c(OC)c(OC)c3)o2)cc1 [Compound 188, (4-Methoxy-benzyl)-{3-[5-(3,4,5-trimethoxy-phenylamino)-[1,3,4]oxadiazol-2-yl]-pyridin-2-yl}-amine]",56
11,"COc1ccc(Nc2nnc(-c3ccccc3NCc3ccncc3)[nH]2)cc1 [Compound 116, (4-Methoxy-phenyl)-(5-{2-[(pyridin-4-ylmethyl)-amino]-phenyl}-4H-[1,2,4]triazol-3-yl)-amine]",20
12,"COc1cc(CNc2ncccc2-c2nnc(Nc3ccc(OC)cc3OC)[nH]2)cc(OC)c1 [Compound 24, (3,5-Dimethoxy-benzyl)-{3-[5-(2,4-dimethoxy-phenylamino)-4H-[1,2,4]triazol-3-yl]-pyridin-2-yl}-amine]",20
13,"Fc1cccc(CNc2ncccc2-c2nnc(Nc3ccc4c(c3)OCO4)o2)c1 [Compound 171, {3-[5-(Benzo[1,3]dioxol-5-ylamino)-[1,3,4]oxadiazol-2-yl]-pyridin-2-yl}-(3-fluoro-benzyl)-amine]",91
14,"c1ccc(-c2nnc(Nc3ccc4c(c3)OCO4)[nH]2)c(NCc2ccc3[nH]cnc3c2)c1 [Compound 118, Benzo[1,3]dioxol-5-yl-(5-{2-[(1H-benzoimidazol-5-ylmethyl)-amino]-phenyl}-4H-[1,2,4]triazol-3-yl)-amine]",41
15,"COc1cccc(Nc2ncc(-c3ccccc3NCc3ccc(F)c(F)c3)o2)c1 [Compound 252, {5-[2-(3,4-Difluoro-benzylamino)-phenyl]-oxazol-2-yl}-(3-methoxy-phenyl)-amine]",27
16,"Brc1ccc(-c2nnc(-c3ccccc3NCc3ccc4cn[nH]c4c3)[nH]2)cc1 [Compound 146, {2-[5-(4-Bromo-phenyl)-4H-[1,2,4]triazol-3-yl]-phenyl}-(1H-indazol-6-ylmethyl)-amine]",39
